US20100221763A1, “Specific Acceptors for Transferases to Saccharides and Method for Obtaining and Using Same” (Health Research, Inc, priority 2005, published 2010)
“And” between values parts separate entries of the source, which are not always exact repeats. Equal entries are not always repeated. Marks after values point to notes of the source that are not given here.

Key:
[1] = target: T1, Rat recombinant α2,3(O)ST (Rattus norvegicus, UniProt Q11205); experiment: Sialyltransferase assay with cloned α2,3(O)ST; format: biochemical; details: Table I; acceptor 7.5 mM; [14C] sialylated product quantitated on Biogel P2 column
T1 construct: purchased Calbiochem
T1 sequence (Q11205 1-350): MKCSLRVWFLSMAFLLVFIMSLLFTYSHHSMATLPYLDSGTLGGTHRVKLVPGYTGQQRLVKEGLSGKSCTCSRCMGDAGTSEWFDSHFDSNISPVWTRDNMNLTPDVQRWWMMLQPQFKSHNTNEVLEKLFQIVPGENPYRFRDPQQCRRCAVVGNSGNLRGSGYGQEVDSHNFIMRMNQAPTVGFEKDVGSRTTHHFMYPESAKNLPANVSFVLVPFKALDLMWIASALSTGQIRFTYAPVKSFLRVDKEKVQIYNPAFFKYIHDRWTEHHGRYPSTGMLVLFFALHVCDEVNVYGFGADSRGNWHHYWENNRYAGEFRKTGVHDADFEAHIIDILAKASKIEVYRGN

[2] = target: T2, Rat recombinant α2,3(N)ST (Rattus norvegicus, UniProt Q02734); experiment: Sialyltransferase assay with cloned α2,3(N)ST; format: biochemical; details: for Cloned Sialyltransferase Activities α2,3(N) ST %: Table III, compound 7.5 mM, 100% = 38140 CPM (Galβ1,4GlcNAcβ1,6(3-O-MeGalβ1,3)GalNAcα-O-Bn); for Sialyltransferase activity (%) Cloned α2,3(N)ST: Table I, acceptor 7.5 mM, 100% = 29520 CPM (Galβ1,4GlcNAcβ-O—Al)
T2 construct: purchased Calbiochem
T2 sequence (Q02734 29-374 limits assumed): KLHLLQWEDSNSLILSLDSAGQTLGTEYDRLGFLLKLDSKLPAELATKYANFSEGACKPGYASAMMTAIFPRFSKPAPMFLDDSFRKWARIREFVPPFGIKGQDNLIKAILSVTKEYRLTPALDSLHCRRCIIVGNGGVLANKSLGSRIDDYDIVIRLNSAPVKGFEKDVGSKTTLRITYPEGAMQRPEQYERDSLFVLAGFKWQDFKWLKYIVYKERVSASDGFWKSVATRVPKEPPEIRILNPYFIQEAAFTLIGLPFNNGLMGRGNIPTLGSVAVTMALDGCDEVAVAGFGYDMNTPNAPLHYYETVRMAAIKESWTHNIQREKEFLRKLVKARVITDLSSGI
Method: (§1) Rat recombinant α2,3(O)ST, α2,3(N)ST and α2,6(N)ST were purchased from Calbiochem and stored at either −20° C. or −70° C. as recommended by the supplier. […] 10 μl aliquots of the diluted enzymes were used in the assays run in duplicate.
(§2) The incubation mixtures run in duplicate contained 0.1M NaCacodylate buffer pH6.0, the acceptor (typically at 7.5 mM, or as indicated in some experiments), CMP-[9 ^3H] NeuAc (typically 0.2 μci; 20 μci/nmol or as indicated in some experiments) and the enzyme in a total volume of 20 μl. The control incubation mixtures contained everything except the acceptor. Incubation was carried out for 2 h at 37° C. The enzymatic transfer of [9-^3H] NeuAc to a typical acceptor was linear for 2 h and less than 30% CMP-[9-^3H] NeuAc was utilized. Chromatography, using either Dowex-1-Formate, Sep-Pak C18 or Biogel P2, was applied to separate radioactive product from un-reacted [9-^3H] NeuAc as described below.
(§3) The radioactive products from neutral allyl and methyl glycosides as well as non-glycosides were measured by fractionation on Dowex-1-Formate (Bio-Rad: AG-1X8; 200-400 mesh; format form) as follows: The incubation mixture was diluted with 1.0 ml water and passed through AG-1-formate column (1.0 ml bed volume in a Pasteur pipet which had been washed with 5 ml of 2M Formic acid followed by 10 ml water). The column was washed twice with 1.0 ml water after the entry of the sample and then eluted with 3.0 ml of 0.1M NaCl. The radioactivity present in water and 0.1M NaCl eluates were measured separately using 3a70 scintillation cocktail (Research Products International, Mount Prospect, Ill.) and a Beckman LS6500 scintillation counter. The CPM values were corrected by subtracting the blank CPM. Any radioactivity present in the water eluate (as noticed in the case of some methylglycosides) was added to the corresponding CPM value of 0.1M NaCl eluate. The radioactive products from sulfated and/or sialylated methylglycosides were also measured by the above procedure, only the elution of the AG-1-Formate column was continued further with 3.0 ml of 0.2M NaCl for achieving a complete elution of the radioactive product, a correction being made as before by subtracting the corresponding blank values.
(§4) The radioactive products from benzylglycosides and monosialylated benzylglycosides were measured by hydrophobic chromatography on Sep-Pak C18 cartridge (Waters, Milford, Mass.) and eluting the product with 3.0 ml methanol (30). The radioactivity was determined by liquid scintillation as above.
(§5) For such work, a Biogel P2 column (Fine Mesh; 1.0×116.0 cm) was used with 0.1M pyridine acetate pH5.4 as the eluent at room temperature. The effluent fractions were monitored for radioactivity and the first peak containing radioactivity was collected, lyophilized to dryness, dissolved in 200 μl of water and stored frozen at −20° C. for thin layer chromatography (TLC) and other experimentation.

[3] = target: T3, Rat recombinant α2,6(N)ST (Rattus norvegicus, UniProt P13721); experiment: Sialyltransferase assay with cloned α2,6(N)ST; format: biochemical; details: for Cloned Sialyltransferase Activities α2,6(N)ST %: Table III, compound 7.5 mM, 100% = 30440 CPM (Galβ1,4GlcNAcβ1,6(3-O-MeGalβ1,3)GalNAcα-O-Bn); for Sialyltransferase activity (%) Cloned α2,6(N)ST: Table I, acceptor 7.5 mM, 100% = 43500 CPM (Galβ1,4GlcNAcβ-O—Al)
T3 construct: purchased Calbiochem
T3 sequence (P13721 1-403): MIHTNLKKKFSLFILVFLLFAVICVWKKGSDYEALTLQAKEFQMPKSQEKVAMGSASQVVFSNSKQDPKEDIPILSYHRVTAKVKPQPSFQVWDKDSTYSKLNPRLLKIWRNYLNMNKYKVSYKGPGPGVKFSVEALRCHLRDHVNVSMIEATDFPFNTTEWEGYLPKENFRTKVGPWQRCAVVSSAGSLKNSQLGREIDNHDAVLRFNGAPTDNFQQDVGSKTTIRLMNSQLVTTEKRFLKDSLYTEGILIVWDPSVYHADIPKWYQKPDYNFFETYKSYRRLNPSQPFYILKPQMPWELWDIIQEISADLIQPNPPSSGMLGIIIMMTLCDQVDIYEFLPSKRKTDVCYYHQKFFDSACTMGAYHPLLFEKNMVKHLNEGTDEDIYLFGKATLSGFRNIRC
Method: as §1, §2, §3, §4, §5

[4] = target: T1, Rat recombinant α2,3(O)ST; experiment: Sialyltransferase assay with cloned α2,3(O)ST; format: biochemical; details: for Cloned Sialyltransferase Activities α2,3(O) ST %: Table III, compound 7.5 mM, 100% = 39200 CPM (3-O-MeGalβ1,4GlcNAcβ1,6(Galβ1,3)GalNAcα-O-Bn); for Sialyltransferase activity (%) Cloned α2,3(O)ST: Table I, acceptor 7.5 mM, 100% = 40560 CPM (3-O-MeGalβ1,4GlcNAcβ1,6(Galβ1,3)GalNAcα-O-Bn)
Method: as §1, §2, §3, §4, §5

LNCaP α2,3(O)ST = experiment: Sialyltransferase assay with LNCaP cell extract; format: biochemical, human; details: for LNCaPα2,3(O)ST %: Table III, compound 7.5 mM, 100% = 30100 CPM (3-O-MeGalβ1,4GlcNAcβ1,6(Galβ1,3)GalNAcα-O-Bn); for Sialyltransferase activity (%) LNCaP α2,3(O)ST: Table I, acceptor 7.5 mM, 100% = 30930 CPM (3-O-MeGalβ1,4GlcNAcβ1,6(Galβ1,3)GalNAcα-O-Bn)
Method: The prostate carcinoma cell line, LNCaP, was grown in RPMI 1640 supplemented with 10% fetal bovine serum and antibiotics (penicillin, streptomycin and amphotericin B) under conditions recommended by American Type Culture Collection (Manassas, Va.). The cells were homogenized with 0.1M Tris-Maleate pH6.3 containing 2% Triton X-100 using a Dounce all glass hand-operated homogenizer. The homogenate was centrifuged at 16,000 g for 1 h at 4° C. Protein concentration in supernatant was measured using the BCA assay (Pierce Biotech, Inc., Rockford, Ill.), with BSA as the standard. The supernatant was adjusted to 5 mg protein/ml by adding the necessary amount of extraction buffer and then stored frozen at −20° C. until use. 10 μl aliquot of this extract was used in assays run in duplicate.
as §2, §3, §4, §5

Compound	Cloned Sialyltransferase Activities α2,3(N) ST % [2]	Cloned Sialyltransferase Activities α2,6(N)ST % [3]	Cloned Sialyltransferase Activities α2,3(O) ST % [4]	LNCaPα2,3(O)ST % (LNCaP α2,3(O)ST)	Sialyltransferase activity (%) Cloned α2,3(N)ST [2]	Sialyltransferase activity (%) Cloned α2,6(N)ST [3]	Sialyltransferase activity (%) Cloned α2,3(O)ST [4]	Sialyltransferase activity (%) LNCaP α2,3(O)ST (LNCaP α2,3(O)ST)	further results
CC(=O)NC1C(OCC2OC(OCc3ccccc3)C(NC(C)=O)C(OC3OC(CO)C(O)C(O)C3O)C2O)OC(COS(=O)(=O)O)C(OC2OC(CO)C(O)C(O)C2O)C1O (centres unmarked) [Galβ1,4(6-O-Sulfo)GlcNAcβ1,6(Galβ1,3)GalNAcα-O-Bn]	–	–	–	–	–	–	–	–	Sialyltransferase activity (%) Cloned α2,3(O)ST [1]: 69.4% and 69.4^e %
CC(=O)N[C@H]1[C@H](OC[C@H]2O[C@H](OCc3ccccc3)[C@H](NC(C)=O)[C@@H](O[C@@H]3O[C@H](CO)[C@H](O)[C@H](F)[C@H]3O)[C@H]2O)O[C@H](CO)[C@@H](O[C@@H]2O[C@H](CO)[C@H](O)[C@H](O)[C@H]2O)[C@@H]1O [Galβ1,4GlcNAcβ1,6(3-FGalβ1,3)GalNAcα-O-Bn]	96.9^25%	77.7^19%	77.2%	1.7%	–	–	–	–	–
CO[C@H]1[C@@H](O)[C@@H](CO)O[C@@H](O[C@H]2[C@H](O)[C@@H](NC(C)=O)[C@H](OC[C@H]3O[C@H](OCc4ccccc4)[C@H](NC(C)=O)[C@@H](O[C@@H]4O[C@H](CO)[C@H](O)[C@H](O)[C@H]4O)[C@H]3O)O[C@@H]2CO)[C@@H]1O [3-O-MeGalβ1,4GlcNAcβ1,6(Galβ1,3)GalNAcα-O-Bn]	4.5%	6.4%	100.0^c %	100.0^d %	6.1%	4.4%	100.0% and 100.0^c %	100.9% and 100.0% and 100.0^d %	–
CO[C@H]1O[C@H](CO[C@@H]2O[C@H](COS(=O)(=O)O)[C@@H](O[C@@H]3O[C@H](CO)[C@H](O)[C@H](O)[C@H]3O)[C@H](O)[C@H]2NC(C)=O)[C@H](O)[C@H](O[C@@H]2O[C@H](CO)[C@H](O)[C@H](O)[C@H]2O)[C@H]1NC(C)=O [Galβ1,4(6-O-Sulfo)GlcNAcβ1,6(Galβ1,3)GalNAcα-O-Me]	–	–	–	–	28.1% and 28.1^21%	30.6^17%	27.2%	14.8%	Sialyltransferase activity (%) Cloned α2,3(N)ST ([2]; listed as Galβ1,4(6-O-Sulfo)GlcNAcβ1,6(Galβ1,3)GalNAcα-): 28.1%
C=CCOC1OC(CO)C(O)C(OC2OC(CO)C(O)C(O)C2O)C1NC(C)=O (centres unmarked) [Galβ1,3GlcNAcβ-O—Al]	–	–	–	–	123.1%	3.0%	42.1%	3.7%	–
C=CCO[C@@H]1O[C@H](CO)[C@@H](O[C@@H]2O[C@H](CO)[C@H](O)[C@H](O)[C@H]2O)[C@H](O)[C@H]1NC(C)=O [Galβ1,4GlcNAcβ-O—Al]	–	–	–	–	100.0^a %	100.0% and 100.0^b %	4.7%	0.5%	–
CO[C@@H]1[C@H](O)[C@@H](O)[C@H](O[C@H]2[C@@H](O)[C@@H](CO[C@@H]3O[C@H](CO)[C@@H](O[C@@H]4O[C@H](CO)[C@H](O)[C@H](O)[C@H]4O)[C@H](O)[C@H]3NC(C)=O)O[C@H](OCc3ccccc3)[C@@H]2NC(C)=O)O[C@@H]1CO [Galβ1,4GlcNAcβ1,6(4-O-MeGalβ1,3)GalNAcα-O-Bn]	100.6%	101.3%	101.3%	112.0%	–	–	–	–	acceptor concentration at which maximum activity is reached (FIG. 3D) (LNCaP α2,3(O)ST; LNCaPα2,3(O)ST): 0.15 mM
CO[C@@H]1[C@H](O)[C@@H](O)[C@H](O[C@H]2[C@H](O)[C@@H](NC(C)=O)[C@H](OC[C@H]3O[C@H](OCc4ccccc4)[C@H](NC(C)=O)[C@@H](O[C@@H]4O[C@H](CO)[C@H](O)[C@H](O)[C@H]4O)[C@H]3O)O[C@@H]2CO)O[C@@H]1CO [4-O-MeGalβ1,4GlcNAcβ1,6(Galβ1,3)GalNAcα-O-Bn]	99.8%	12.6%	103.0%	97.1%	–	–	–	–	α2,3(N)ST activity compared to Galβ1,4GlcNAcβ1,6(Galβ1,3)GalNAcα-O-Bn (FIG. 3B) ([2]; lowest concentration tested, 0.05 mM): four fold; α2,3(N)ST activity compared to Galβ1,4GlcNAcβ1,6(Galβ1,3)GalNAcα-O-Bn (FIG. 3B) ([2]; maximum concentration tested, 0.25 mM): two-fold; α2,6(N)ST activity at varying acceptor concentration (FIG. 3A) ([3]; maximum concentration tested, 0.75 mM): almost inactive
